How the values were obtained:
ATF4 = assay: HEK-ATF4 High Content Imaging assay (prevention of Tunicamycin induced ISR; ATF4 signal ratio between nucleus and cytoplasm); type: cell-based; settings: Homo sapiens; Wild-type HEK293 cells, Tunicamycin induced ISR, 6 h; read-out: IIEK-ATF4 Activity
Method in brief: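 Wild-type HEK293 cells in 0.3% FBS medium were co-treated with compounds and Tunicamycin (3.3 μM in prediluted medium, 11-fold over final) for 6 h at 37 °C. Fixed cells were immunostained for ATF4 with Hoechst nuclei; imaging gave nuclear/cytoplasmic ATF4 ratio, with nuclei counts as toxicity control.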

[1] = target: T1, human ERG potassium channel (hERG) (Homo sapiens, UniProt Q12809); assay: hERG channel tail current recording using in vitro Rapid ICE (automated patch-clamp, QPatch HTX); type: cell-based; settings: Table 26
T1 construct: expressed in transfected cells; host or cells: HEK293, stably transfected, tetracycline-inducible promoter
Experimental: Protocol—Measure of the Effect on hERG Channel by Tail Current Recording Using In Vitro Rapid ICE
The potency of the example compounds in inhibiting human ERG potassium channel (hERG) tail current was assessed in a recombinant HEK293 cell line stably transfected with hERG cDNA under an inducible promoter, using Rapid ICE (rapid ion channel electrophysiology) assay. Rapid ICE is an automated patch-clamp assay utilizing the QPatch HTX system (Sophion Bioscience A/S). Briefly, inducible HEK hERG cells were cultivated in minimum essential medium supplemented with 10% FBS, 1% non-essential amino acids, 1% sodium pyruvate, 2 mM 1-glutamine, 15 μg/mL blasticidin, and 100 μg/mL hygromycin. hERG channel expression induction was obtained by adding 10 μg/mL tetracycline for 24, 48, or 72 h before recordings.
On the day of the experiment, cells were detached with TrypLE and prepared to be loaded on the instrument. Cells were resuspended in 7 mL of Serum-Free Media containing 25 mM Hepes and soybean trypsin inhibitor and immediately placed in the cell storage tank of the machine. The composition of the extracellular buffer was (mM): NaCl 137, KCl 4, CaCl2 1.8, MgCl2 1.0, d-glucose 10, N-2-hydroxyethylpiperazine-N′-2-ethanesulfonic acid (HEPES) 10, pH 7.4 with 1 M NaOH. The composition of the intracellular solution was (mM): KCl 130, MgCl2 1.0, ethylene glycol-bis(β-aminoethyl ether)-N,N,N′,N′-tetraacetic acid (EGTA) 5, MgATP 5, HEPES 10, pH 7.2 with 1 M KOH. The voltage protocol included the following steps: step from −80 to −50 mV for 200 ms, +20 mV for 4.8 s, step to −50 mV for 5 s, then step to the holding potential of −80 mV. Compounds were dissolved in DMSO and diluted in extracellular buffer to achieve final test concentrations (0.3, 3, and 30 μM) in 0.3% DMSO. The voltage protocol was run and recorded continuously during the experiment. The vehicle, corresponding to 0.3% DMSO in extracellular buffer was then applied for 3 min, followed by the test substance in triplicate. The standard combined exposure time was 5 min. The average of tail current amplitude values recorded from four sequential voltage pulses was used to calculate for each cell the effect of the test substance by calculating the residual current (% control) compared with vehicle pretreatment. Data were reported as % inhibition for each concentration tested, and IC50 values were estimated using QPatch software. At least two cells were tested, and even more if results diverged.

T1 sequence (Q12809 whole entry): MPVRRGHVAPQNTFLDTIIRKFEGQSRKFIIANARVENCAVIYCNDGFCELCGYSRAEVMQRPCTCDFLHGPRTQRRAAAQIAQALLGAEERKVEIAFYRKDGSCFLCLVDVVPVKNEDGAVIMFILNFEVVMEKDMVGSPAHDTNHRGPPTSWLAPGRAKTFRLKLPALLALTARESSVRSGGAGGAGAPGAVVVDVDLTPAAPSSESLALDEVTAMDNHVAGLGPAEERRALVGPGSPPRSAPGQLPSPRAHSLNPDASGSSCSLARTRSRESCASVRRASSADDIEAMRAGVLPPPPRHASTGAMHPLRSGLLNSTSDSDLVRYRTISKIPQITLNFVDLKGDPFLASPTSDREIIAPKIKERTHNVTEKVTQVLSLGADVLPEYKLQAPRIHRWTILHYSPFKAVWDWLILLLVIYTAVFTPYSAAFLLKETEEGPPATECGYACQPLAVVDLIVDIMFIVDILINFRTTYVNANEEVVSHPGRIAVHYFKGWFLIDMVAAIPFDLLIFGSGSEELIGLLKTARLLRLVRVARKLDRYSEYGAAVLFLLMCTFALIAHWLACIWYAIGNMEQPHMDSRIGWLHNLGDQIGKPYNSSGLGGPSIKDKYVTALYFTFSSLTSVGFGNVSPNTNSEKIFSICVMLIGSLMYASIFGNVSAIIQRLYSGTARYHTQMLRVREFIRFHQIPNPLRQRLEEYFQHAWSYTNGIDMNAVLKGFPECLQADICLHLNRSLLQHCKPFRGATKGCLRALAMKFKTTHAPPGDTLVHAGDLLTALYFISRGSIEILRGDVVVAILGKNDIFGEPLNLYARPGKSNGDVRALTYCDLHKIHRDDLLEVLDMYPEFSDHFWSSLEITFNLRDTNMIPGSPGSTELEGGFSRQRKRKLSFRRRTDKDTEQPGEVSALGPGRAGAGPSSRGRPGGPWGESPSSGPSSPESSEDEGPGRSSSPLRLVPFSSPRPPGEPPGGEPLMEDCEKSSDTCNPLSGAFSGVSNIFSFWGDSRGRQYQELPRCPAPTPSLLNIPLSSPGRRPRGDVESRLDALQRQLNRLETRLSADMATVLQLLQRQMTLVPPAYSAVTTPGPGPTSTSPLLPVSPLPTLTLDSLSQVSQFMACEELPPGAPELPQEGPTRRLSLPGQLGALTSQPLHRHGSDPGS

Row | SMILES | IC50 (ATF4) [nM] | IC50 [1] [nM]
1 | COCCCOc1nnc([C@H]2CC[C@H](NC(=O)COc3ccc(Cl)c(F)c3)CN2)o1 [Example 79, 2-(4-chloro-3-fluorophenoxy)-N-[(3S,6R)-6-[5-(3-methoxypropoxy)-1,3,4-oxadiazol-2-yl]piperidin-3-yl]acetamide] | 2000 to 15000 | > 5000
2 | CCOCCOc1nnc([C@H]2CC[C@H](NC(=O)COc3ccc(Cl)c(F)c3)CN2)o1 [Example 81, 2-(4-chloro-3-fluorophenoxy)-N-[(3S,6R)-6-[5-(2-ethoxyethoxy)-1,3,4-oxadiazol-2-yl]piperidin-3-yl]acctamide] | 500 to 2000 | > 5000
3 | O=C(COc1ccc(Cl)c(F)c1)N[C@H]1CC[C@H](c2nnc(OCCOC3CCC3)o2)NC1 [Example 82, 2-(4-chloro-3-fluorophenoxy)-N-[(3S,6R)-6-[5-(2-cyclobutoxyethoxy)-1,3,4-oxadiazol-2-yl]piperidin-3-yl]acetamide] | 1 to 500 | > 5000
4 | O=C(COc1ccc(Cl)c(F)c1)N[C@H]1CC[C@H](c2nnc(OCC3CC3C(F)(F)F)o2)NC1 (stereo partly drawn) [Example 88, 2-(4-chloro-3-fluorophenoxy)-N-[(3S,6R)-6-(5-{[2-(trifluoromethyl)cyclopropyl]methoxy}-1,3,4-oxadiazol-2-yl)piperidin-3-yl]acetamide] | 500 to 2000 | 1000 to 5000
5 | O=C(COc1ccc(Cl)c(F)c1)N[C@H]1CC[C@H](c2nnc(N3CC(CC(F)(F)F)C3)o2)NC1 [Example 92, 2-(4-chloro-3-fluorophenoxy)-N-[(3S,6R)-6-{5-[3-(2,2,2-trifluoroethyl)azetidin-1-yl]-1,3,4-oxadiazol-2-yl}piperidin-3-yl]acetamide] | 500 to 2000 | 1000 to 5000
6 | CC1(OC(F)(F)F)CN(c2nnc([C@H]3CC[C@H](NC(=O)COc4ccc(Cl)c(F)c4)CN3)o2)C1 [Example 93, 2-(4-chloro-3-fluorophenoxy)-N-[(3S,6R)-6-{5-[3-methyl-3-(trifluoromethoxy)azetidin-1-yl]-1,3,4-oxadiazol-2-yl}piperidin-3-yl]acetamide] | 500 to 2000 | > 5000
7 | CN(CCOC(F)(F)F)c1nnc([C@H]2CC[C@H](NC(=O)COc3ccc(Cl)c(F)c3)CN2)o1 [Example 94, 2-(4-chloro-3-fluorophenoxy)-N-[(3S,6R)-6-(5-{methyl[2-(trifluoromethoxy)ethyl]amino}-1,3,4-oxadiazol-2-yl)piperidin-3-yl]acetamide] | 2000 to 15000 | > 5000
8 | O=C(COc1cnc(Cl)c(F)c1)N[C@H]1CC[C@H](c2nnc(-c3ccc(Cl)c(Cl)c3)o2)NC1 [Example 100, 2-[(6-chloro-5-fluoropyridin-3-yl)oxy]-N-[(3S,6R)-6-[5-(3,4-dichlorophenyl)-1,3,4-oxadiazol-2-yl]piperidin-3-yl]acetamide] | 1 to 500 | 1000 to 5000
9 | CN1C[C@@H](NC(=O)COc2ccc(Cl)c(F)c2)CC[C@@H]1c1nnc(OCCOC(F)(F)F)o1 [Example 101, 2-(4-chloro-3-fluorophenoxy)-N-[(3S,6R)-1-methyl-6-{5-[2-(trifluoromethoxy)ethoxy]-1,3,4-oxadiazol-2-yl}piperidin-3-yl]acetamide] | 1 to 500 | > 5000
10 | O=C(COc1ccc(C(F)F)c(Cl)c1)N[C@H]1CC[C@H](c2nnc(OCCOC(F)(F)F)o2)NC1 [Example 113, 2-[3-chloro-4-(difluoromethyl)phenoxy]-N-[(3S,6R)-6-{5-[2-(trifluoromethoxy)ethoxy]-1,3,4-oxadiazol-2-yl}piperidin-3-yl]acetamide] | 1 to 500 | 1000 to 5000

Further lines, with some results ahead:

Row | IC50 (ATF4) [nM] | SMILES | IC50 [1] [nM]
11 | 1 to 500 | CCCCCOc1nnc([C@H]2CC[C@H](NC(=O)COc3ccc(Cl)c(F)c3)CN2)o1 [Example 78, 2-(4-chloro-3-fluorophenoxy)-N-[(3S,6R)-6-[5-(pentyloxy)-1,3,4-oxadiazol-2-yl]piperidin-3-yl]acetamide] | 1000 to 5000
12 | 1 to 500 | O=C(COc1ccc(Cl)c(F)c1)N[C@H]1CC[C@H](c2nnc(OCCOC3CC3)o2)NC1 [Example 80, 2-(4-chloro-3-fluorophenoxy)-N-[(3S,6R)-6-[5-(2-cyclopropoxythoxy)-1,3,4-oxadiazol-2-yl]piperidin-3-yl]acetamide] | > 5000
13 | 1 to 500 | O=C(COc1ccc(Cl)c(F)c1)N[C@@H]1CC[C@@H](c2nnc(OCCOC(F)(F)F)o2)NC1 [Example 83, 2-(4-chloro-3-fluorophenoxy)-N-[(3R,6S)-6-{5-[2-(trifluoromethoxy)ethoxy]-1,3,4-oxadiazol-2-yl}piperidin-3-yl]acetamide] | > 5000
14 | 1 to 500 | O=C(COc1ccc(Cl)c(Cl)c1)N[C@H]1CC[C@H](c2nnc(OCCOC3CC3)o2)NC1 [Example 86, N-[(3S,6R)-6-[5-(2-cyclopropoxyethoxy)-1,3,4-oxadiazol-2-yl]piperidin-3-yl]-2-(3,4-dichlorophenoxy)acetamide] | 1000 to 5000
15 | 1 to 500 | O=C(COc1ccc(Cl)c(F)c1)N[C@H]1CC[C@H](c2nnc(OCCOC3CC3(F)F)o2)NC1 (stereo partly drawn) [Example 87, 2-(4-chloro-3-fluorophenoxy)-N-[(3S,6R)-6-{5-[2-(2,2-difluorocyclopropoxy)ethoxy]-1,3,4-oxadiazol-2-yl}piperidin-3-yl]acetamide] | 1000 to 5000
16 | 1 to 500 | O=C(COc1ccc(Cl)c(F)c1)N[C@H]1CC[C@H](c2nnc(N3CC(OC(F)(F)F)C3)o2)NC1 [Example 91, 2-(4-chloro-3-fluorophenoxy)-N-[(3S,6R)-6-{5-[3-(trifluoromethoxy)azetidin-1-yl]-1,3,4-oxadiazol-2-yl}piperidin-3-yl]acetamide] | 1000 to 5000

From US12258338B2, “Modulators of the integrated stress response pathway” (EVOTEC INTERNATIONAL GMBH, priority 2019, dated 2025)
